Consider 5 molecules from PubChem BioAssay AID1963837 (Molecular Pharmacology Branch, DTP, NCI, 2024).
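Note: spheroids exposed to drugs for seven days before readout.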

One experiment relates to 843126-344-R-J1-PDC complex spheroid viability. The experiment is described as follows: Anticancer human tumor 843126-344-R-J1-PDC patient-derived melanoma cell line growth inhibition [POLQ]. Particulars: second compound 1 µM; first compound 0.316 µM; stronger effect = lower value. The procedure, abridged:
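Three-cell-type spheroids modelling solid tumor plus stroma served as the readout system; POL inhibitors were tested individually and in combination, concentration ranges set by clinical Cmax where known.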
`CC(C)n1c(=O)n(C)c2cnc3cc(F)c(-c4ccc(OCCCN5CCCCC5)nc4)cc3c21` + Nc1ccc(C#CCN(C(=O)Cc2ncc(C(F)(F)F)cc2C(F)(F)F)c2ccc(F)cc2)nn1: the viability, T/C was 90.9%.
`CC1COCCN1c1cc(-c2ccnn2C)c2ccnc(-c3ccn[nH]3)c2n1` (stereo unspecified) + Nc1ccc(C#CCN(C(=O)Cc2ncc(C(F)(F)F)cc2C(F)(F)F)c2ccc(F)cc2)nn1: the viability, T/C is 55.9%.
With `CCc1cc2c(N3CCc4c(cc(Cn5ccnc5)cc4-c4cn(C)nc4C(F)(F)F)C3=O)ccnc2c(OC)n1` + Nc1ccc(C#CCN(C(=O)Cc2ncc(C(F)(F)F)cc2C(F)(F)F)c2ccc(F)cc2)nn1, the viability, T/C is 94.4%.
The same measure, in the same setting: with `COc1ccc([C@@H](O)c2cc(-c3ncnc4cc(N5CCOCC5)ccc34)c(F)cc2Cl)nn1` + Nc1ccc(C#CCN(C(=O)Cc2ncc(C(F)(F)F)cc2C(F)(F)F)c2ccc(F)cc2)nn1 the figure was 91.8%.

Still in this experiment, the particulars now being: second compound 1 µM; first compound 1 µM; stronger effect = lower value.
For the molecule `C=CC(=O)N1CCN(c2nc(=O)n(-c3c(C)ccnc3C(C)C)c3nc(-c4c(O)cccc4F)c(F)cc23)C(C)C1` (stereo unspecified) + Nc1ccc(C#CCN(C(=O)Cc2ncc(C(F)(F)F)cc2C(F)(F)F)c2ccc(F)cc2)nn1, the viability, T/C is 94.7%.
With `CC(C)n1c(=O)n(C)c2cnc3cc(F)c(-c4ccc(OCCCN5CCCCC5)nc4)cc3c21` + Nc1ccc(C#CCN(C(=O)Cc2ncc(C(F)(F)F)cc2C(F)(F)F)c2ccc(F)cc2)nn1, the viability, T/C is 93.5%.
Same read-out and setting: with `CC1COCCN1c1cc(-c2ccnn2C)c2ccnc(-c3ccn[nH]3)c2n1` (stereo unspecified) + Nc1ccc(C#CCN(C(=O)Cc2ncc(C(F)(F)F)cc2C(F)(F)F)c2ccc(F)cc2)nn1 the figure was 49.8%; with `CCc1cc2c(N3CCc4c(cc(Cn5ccnc5)cc4-c4cn(C)nc4C(F)(F)F)C3=O)ccnc2c(OC)n1` + Nc1ccc(C#CCN(C(=O)Cc2ncc(C(F)(F)F)cc2C(F)(F)F)c2ccc(F)cc2)nn1, 72.2%; with `COc1ccc([C@@H](O)c2cc(-c3ncnc4cc(N5CCOCC5)ccc34)c(F)cc2Cl)nn1` + Nc1ccc(C#CCN(C(=O)Cc2ncc(C(F)(F)F)cc2C(F)(F)F)c2ccc(F)cc2)nn1, 88.5%.

The same experiment, now with this note: second compound 1 µM; first compound 3.16 µM; stronger effect = lower value.
Regarding `C=CC(=O)N1CCN(c2nc(=O)n(-c3c(C)ccnc3C(C)C)c3nc(-c4c(O)cccc4F)c(F)cc23)C(C)C1` (stereo unspecified) + Nc1ccc(C#CCN(C(=O)Cc2ncc(C(F)(F)F)cc2C(F)(F)F)c2ccc(F)cc2)nn1, the viability, T/C was 104%.
Same read-out and setting: for `CC(C)n1c(=O)n(C)c2cnc3cc(F)c(-c4ccc(OCCCN5CCCCC5)nc4)cc3c21` + Nc1ccc(C#CCN(C(=O)Cc2ncc(C(F)(F)F)cc2C(F)(F)F)c2ccc(F)cc2)nn1 the value was 81%; for `CC1COCCN1c1cc(-c2ccnn2C)c2ccnc(-c3ccn[nH]3)c2n1` (stereo unspecified) + Nc1ccc(C#CCN(C(=O)Cc2ncc(C(F)(F)F)cc2C(F)(F)F)c2ccc(F)cc2)nn1, 41.3%.
On the same count and under the same terms, for `CCc1cc2c(N3CCc4c(cc(Cn5ccnc5)cc4-c4cn(C)nc4C(F)(F)F)C3=O)ccnc2c(OC)n1` + Nc1ccc(C#CCN(C(=O)Cc2ncc(C(F)(F)F)cc2C(F)(F)F)c2ccc(F)cc2)nn1 the value was 88.4%; for `COc1ccc([C@@H](O)c2cc(-c3ncnc4cc(N5CCOCC5)ccc34)c(F)cc2Cl)nn1` + Nc1ccc(C#CCN(C(=O)Cc2ncc(C(F)(F)F)cc2C(F)(F)F)c2ccc(F)cc2)nn1, 74.5%.

Staying with this experiment, now noted: second compound 1 µM; first compound 10 µM; stronger effect = lower value.
Take `C=CC(=O)N1CCN(c2nc(=O)n(-c3c(C)ccnc3C(C)C)c3nc(-c4c(O)cccc4F)c(F)cc23)C(C)C1` (stereo unspecified) + Nc1ccc(C#CCN(C(=O)Cc2ncc(C(F)(F)F)cc2C(F)(F)F)c2ccc(F)cc2)nn1: the viability, T/C is 85.4%.
As for `CC(C)n1c(=O)n(C)c2cnc3cc(F)c(-c4ccc(OCCCN5CCCCC5)nc4)cc3c21` + Nc1ccc(C#CCN(C(=O)Cc2ncc(C(F)(F)F)cc2C(F)(F)F)c2ccc(F)cc2)nn1, the viability, T/C was 64.1%.
On the same count and under the same terms, with `CC1COCCN1c1cc(-c2ccnn2C)c2ccnc(-c3ccn[nH]3)c2n1` (stereo unspecified) + Nc1ccc(C#CCN(C(=O)Cc2ncc(C(F)(F)F)cc2C(F)(F)F)c2ccc(F)cc2)nn1 the figure was 32.8%.
The same measure, in the same setting: for `CCc1cc2c(N3CCc4c(cc(Cn5ccnc5)cc4-c4cn(C)nc4C(F)(F)F)C3=O)ccnc2c(OC)n1` + Nc1ccc(C#CCN(C(=O)Cc2ncc(C(F)(F)F)cc2C(F)(F)F)c2ccc(F)cc2)nn1 the value was 58.2%.
On the same count and under the same terms, with `COc1ccc([C@@H](O)c2cc(-c3ncnc4cc(N5CCOCC5)ccc34)c(F)cc2Cl)nn1` + Nc1ccc(C#CCN(C(=O)Cc2ncc(C(F)(F)F)cc2C(F)(F)F)c2ccc(F)cc2)nn1 the figure was 64%.

Still in this experiment, the particulars now being: second compound 3.16 µM; first compound 0.0316 µM; stronger effect = lower value.
Consider `C=CC(=O)N1CCN(c2nc(=O)n(-c3c(C)ccnc3C(C)C)c3nc(-c4c(O)cccc4F)c(F)cc23)C(C)C1` (stereo unspecified) + Nc1ccc(C#CCN(C(=O)Cc2ncc(C(F)(F)F)cc2C(F)(F)F)c2ccc(F)cc2)nn1, for which the viability, T/C is 87.5%.
Consider `CC(C)n1c(=O)n(C)c2cnc3cc(F)c(-c4ccc(OCCCN5CCCCC5)nc4)cc3c21` + Nc1ccc(C#CCN(C(=O)Cc2ncc(C(F)(F)F)cc2C(F)(F)F)c2ccc(F)cc2)nn1, for which the viability, T/C is 76.5%.
The same measure, in the same setting: with `CC1COCCN1c1cc(-c2ccnn2C)c2ccnc(-c3ccn[nH]3)c2n1` (stereo unspecified) + Nc1ccc(C#CCN(C(=O)Cc2ncc(C(F)(F)F)cc2C(F)(F)F)c2ccc(F)cc2)nn1 the figure was 75.9%; with `CCc1cc2c(N3CCc4c(cc(Cn5ccnc5)cc4-c4cn(C)nc4C(F)(F)F)C3=O)ccnc2c(OC)n1` + Nc1ccc(C#CCN(C(=O)Cc2ncc(C(F)(F)F)cc2C(F)(F)F)c2ccc(F)cc2)nn1, 94.5%; with `COc1ccc([C@@H](O)c2cc(-c3ncnc4cc(N5CCOCC5)ccc34)c(F)cc2Cl)nn1` + Nc1ccc(C#CCN(C(=O)Cc2ncc(C(F)(F)F)cc2C(F)(F)F)c2ccc(F)cc2)nn1, 100%.

The experiment is the same for the next values; noted with them: second compound 3.16 µM; first compound 0.1 µM; stronger effect = lower value.
Turning to `C=CC(=O)N1CCN(c2nc(=O)n(-c3c(C)ccnc3C(C)C)c3nc(-c4c(O)cccc4F)c(F)cc23)C(C)C1` (stereo unspecified) + Nc1ccc(C#CCN(C(=O)Cc2ncc(C(F)(F)F)cc2C(F)(F)F)c2ccc(F)cc2)nn1, the viability, T/C is 88.7%.
Still for that read-out and setting: with `CC(C)n1c(=O)n(C)c2cnc3cc(F)c(-c4ccc(OCCCN5CCCCC5)nc4)cc3c21` + Nc1ccc(C#CCN(C(=O)Cc2ncc(C(F)(F)F)cc2C(F)(F)F)c2ccc(F)cc2)nn1 the figure was 84%.
